Peptide text beside a SMILES is read from it. * marks the point of attachment. X2 = CCC1(OC(=O)CCCCCN2C(=O)CC(*)C2=O)C(=O)OCc2c1cc1n(c2=O)Cc2cc3ccccc3nc2-1; X1 = CCC1(C(=O)OCCS*)C(=O)OCc2c1cc1n(c2=O)Cc2cc3ccccc3nc2-1; X5 = CCC1(OC(=O)CCS*)C(=O)OCc2c1cc1n(c2=O)Cc2cc3ccccc3nc2-1
Experiments:
MDA-MB-231 = assay: cells; conditions: Homo sapiens, MDA-MB-231, 48 h
Description: Cytotoxicity against HER-negative human MDA-MB-231 cells incubated for 48 hrs by CCK-8 assay

SK-BR-3 = assay: cells; conditions: Homo sapiens, SK-BR-3, 48 h
Description: Cytotoxicity against HER-positive human SK-BR-3 cells incubated for 48 hrs by CCK-8 assay

NCI-N87 = assay: cells; conditions: Homo sapiens, NCI-N87, 48 h
Description: Cytotoxicity against HER-positive human NCI-N87 cells incubated for 48 hrs by CCK-8 assay

SK-OV-3 = assay: cells; conditions: Homo sapiens, SK-OV-3, 48 h
Description: Cytotoxicity against HER-positive human SK-OV-3 cells incubated for 48 hrs by CCK-8 assay

[1] = Cytotoxicity against HER-negative human MCF-10A cells incubated for 48 hrs by CCK-8 assay; type: toxicity, cell-based

Row | SMILES | IC50 (MDA-MB-231) [µM] | IC50 (SK-BR-3) [µM] | IC50 (NCI-N87) [µM] | IC50 (SK-OV-3) [µM] | IC50 at 48 h [1] [µM]
1 | CC[C@H](C)[C@H](NC(=O)[C@@H]1CCCN1C(=O)[C@@H](NC(=O)[C@H](C)N)C(C)C)C(=O)N[C@@H](C)C(=O)N[C@@H](CCC(N)=O)C(=O)N[C@@H](CCCCN)C(=O)N[C@@H](CSC1CC(=O)N(CCCCCC(=O)OC2(CC)C(=O)OCc3c2cc2n(c3=O)Cc3cc4ccccc4nc3-2)C1=O)C(=O)NCC(=O)N[C@@H](Cc1ccccc1)C(=O)N[C@@H](CC(C)C)C(=O)NCC(=O)N[C@@H](CC(N)=O)C(=O)N1CCC[C@H]1C(=O)N[C@@H](CC(N)=O)C(=O)N[C@@H](Cc1c[nH]c2ccccc12)C(=O)NCC(=O)N[C@@H](CCCNC(=N)N)C(=O)N[C@@H](CO)C(=O)N[C@@H](Cc1c[nH]c2ccccc12)C(=O)N[C@@H](Cc1ccc(O)cc1)C(=O)N[C@@H](CC(N)=O)C(=O)N[C@@H](CCC(N)=O)C(=O)N[C@@H](CCCNC(=N)N)C(=O)N[C@@H](Cc1ccccc1)C(=O)N[C@@H](CCCCN)C(N)=O (stereo not given in full) (H-AVPIAQKC(X2)GFLGNPNWGRSWYNQRFK-NH2) | 28.2 | 15.7 | 20.1 | > 50 | > 50
2 | CC[C@H](C)[C@H](NC(=O)[C@@H]1CCCN1C(=O)[C@@H](NC(=O)[C@H](C)N)C(C)C)C(=O)N[C@@H](C)C(=O)N[C@@H](CCC(N)=O)C(=O)N[C@@H](CCCCN)C(=O)N[C@@H](CSSCCC(=O)OC1(CC)C(=O)OCc2c1cc1n(c2=O)Cc2cc3ccccc3nc2-1)C(=O)NCC(=O)N[C@@H](Cc1ccccc1)C(=O)N[C@@H](CC(C)C)C(=O)NCC(=O)N[C@@H](CC(N)=O)C(=O)N1CCC[C@H]1C(=O)N[C@@H](CC(N)=O)C(=O)N[C@@H](Cc1c[nH]c2ccccc12)C(=O)NCC(=O)N[C@@H](CCCNC(=N)N)C(=O)N[C@@H](CO)C(=O)N[C@@H](Cc1c[nH]c2ccccc12)C(=O)N[C@@H](Cc1ccc(O)cc1)C(=O)N[C@@H](CC(N)=O)C(=O)N[C@@H](CCC(N)=O)C(=O)N[C@@H](CCCNC(=N)N)C(=O)N[C@@H](Cc1ccccc1)C(=O)N[C@@H](CCCCN)C(N)=O (stereo not given in full) (H-AVPIAQKC(X5)GFLGNPNWGRSWYNQRFK-NH2) | 16.2 | 1.78 | 6.53 | 5.81 | 22.1
3 | CC[C@H](C)[C@H](NC(=O)[C@@H]1CCCN1C(=O)[C@@H](NC(=O)[C@H](C)N)C(C)C)C(=O)N[C@@H](C)C(=O)N[C@@H](CCC(N)=O)C(=O)N[C@@H](CCCCN)C(=O)NCC(=O)N[C@@H](Cc1ccccc1)C(=O)N[C@@H](CC(C)C)C(=O)NCC(=O)N[C@@H](CSSCCOC(=O)C1(CC)C(=O)OCc2c1cc1n(c2=O)Cc2cc3ccccc3nc2-1)C(=O)N[C@@H](CC(N)=O)C(=O)N1CCC[C@H]1C(=O)N[C@@H](CC(N)=O)C(=O)N[C@@H](Cc1c[nH]c2ccccc12)C(=O)NCC(=O)N[C@@H](CCCNC(=N)N)C(=O)N[C@@H](CO)C(=O)N[C@@H](Cc1c[nH]c2ccccc12)C(=O)N[C@@H](Cc1ccc(O)cc1)C(=O)N[C@@H](CC(N)=O)C(=O)N[C@@H](CCC(N)=O)C(=O)N[C@@H](CCCNC(=N)N)C(=O)N[C@@H](Cc1ccccc1)C(=O)N[C@@H](CCCCN)C(N)=O (stereo not given in full) (H-AVPIAQKGFLGC(X1)NPNWGRSWYNQRFK-NH2) | 10.6 | 2.59 | 5.93 | 8.24 | 15.1
4 | CC[C@H](C)[C@H](NC(=O)[C@@H]1CCCN1C(=O)[C@@H](NC(=O)[C@H](C)N)C(C)C)C(=O)N[C@@H](C)C(=O)N[C@@H](CCC(N)=O)C(=O)N[C@@H](CCCCN)C(=O)NCC(=O)N[C@@H](Cc1ccccc1)C(=O)N[C@@H](CC(C)C)C(=O)NCC(=O)N[C@@H](CSC1CC(=O)N(CCCCCC(=O)OC2(CC)C(=O)OCc3c2cc2n(c3=O)Cc3cc4ccccc4nc3-2)C1=O)C(=O)N[C@@H](CC(N)=O)C(=O)N1CCC[C@H]1C(=O)N[C@@H](CC(N)=O)C(=O)N[C@@H](Cc1c[nH]c2ccccc12)C(=O)NCC(=O)N[C@@H](CCCNC(=N)N)C(=O)N[C@@H](CO)C(=O)N[C@@H](Cc1c[nH]c2ccccc12)C(=O)N[C@@H](Cc1ccc(O)cc1)C(=O)N[C@@H](CC(N)=O)C(=O)N[C@@H](CCC(N)=O)C(=O)N[C@@H](CCCNC(=N)N)C(=O)N[C@@H](Cc1ccccc1)C(=O)N[C@@H](CCCCN)C(N)=O (stereo not given in full) (H-AVPIAQKGFLGC(X2)NPNWGRSWYNQRFK-NH2) | 30.6 | 18.3 | 25.3 | > 50 | > 50

Source: ChEMBL document CHEMBL5537151, “Design, synthesis and bioactivity evaluation of novel fusion peptides and their CPT conjugates inducing effective anti-tumor responses on HER2 positive tumors” (Eur J Med Chem, 2024)
